According to patent publication US12365710B2, “HMGB1 protein derivatives for the removal of biofilms” (RESEARCH INSTITUTE AT NATIONWIDE CHILDREN'S HOSPITAL, priority 2018, dated 2025):

System: established biofilms formed by high priority human pathogens
Assay: in vitro disruption of established biofilms of high priority pathogens (panel)
Format: cell-based, UPEC, B. cenocepacia, NTHI, ESKAPE pathogens
Details: single dose 200 nM, biofilms formed 24 h, 16 h exposure
Protocol: FIGS. 5A-5E: Anti-biofilm effect of HMGB1 variants on high priority bacterial pathogens. Indicated HMGB1 variants or antibodies against DNABII proteins (α-1HFEc 1gG, 1 μM) were added at 24 h to the respective preformed bacterial biofilms, in vitro. After 16 h of Incubation, biofilms were stained with LIVE/DEAD®, then visualized via confocal laser scanning microscopy. Images were analyzed by COMSTAT to calculate average thickness and comparison to control was plotted. (FIG. 5A) Full-length HMGB1 isoforms (200 nM unless otherwise indicated) added to UPEC, B. cenocepacia, NTHI, or ESKAPE pathogens. 800 nM rHMGB1 and 200 nM mHMGB1 were added for S. aureus (ESKAPE). […] Statistical significance compared to control was assessed with unpaired t-tests, *P<0.05. […] Images were analyzed by COMSTAT to calculate average thickness and total biomass. […]
HMGB1 disrupts pathogenic biofilms: To test the effect of HMGB1 on bacterial biofilms (FIG. 5), Applicant cloned (IMPACT®, NEB Ipswich, MA), expressed (in E. coli), and purified (heparin sepharose chromatography to >95% purity) tagless human recombinant HMGB1 (rHMGB1) and an engineered C45 S variant (mHMGB1) that mimics the reduced form of HMGB1. rHMGB1 readily forms an intramolecular disulfide bond between C23 and C45 that contributes to pro-inflammatory activity whereas mHMGB1 cannot. […]

Substance: rHMGB1: tagless human recombinant full length HMGB1 (1-215) expressed in E. coli
- disruption of established biofilms (average thickness and biomass) of high priority species: significant reduction
- disruption of established biofilms (average thickness and biomass) of high priority species (listed as Full length recombinant HMGB1): significantly disrupt
